Consider 37 compounds from patent US4549023A, “3-Aminoindazole derivatives” (priority 1980, dated 1985).

Series [1] deals with carrageenin edema in rat's paw. In words: Carrageenin Edema Test in Rat's Paw (anti-inflammatory activity). To be noted: for inhibition in vivo at 100 mg/kg: Rattus norvegicus, hydrochloric acid salts. It is filed as in vivo, Female Wistar rats. On the procedure: A standard method of Carrageenin Edema Test in Rat's Paw described in C. A. Winter et al., Proc. Soc. Exp. Biol. Med., 111, 544 (1962) was employed.
[…] One hour later, the pad of a hind paw of the rat was injected with 0.1 ml of 1% aqueous carrageenin solution. The volume of the paw was measured both before the injection of carrageenin and three hours after the injection.
The edema inhibition percentage of the test compound was calculated from the ratio of the increase in the volume of the affected paw of the test animals to the increase in the volume of the affected paw of the controls.
The anti-inflammatory activity of the 3-aminoindazole derivative hydrochloric acid salts of this invention was measured.
The anti-inflammatory activity of the 3-aminoindazole derivative hydrochloric acid salts obtained by Examples 1-49 of this invention was measured by the standard method of carrageenin edema test. In these tests, the amount of the administration of the salts was 100 mg/kg. The results are shown in Table 17 (Inhibition (%) was measured three hours after the injection).
(The carrageenan paw model is a standard test of acute inflammation.)

Series [2] in a line: Acute toxicity (LD50), intravenous injection. To be noted: mouse, in vivo, male ddY-strain mice, read-out: LD50, Table 19. On the procedure: Acute toxicity was measured by an ordinary method described in Finney DJ Probit Analysis Cambridge University Press 48, (1952). Ddy mice weighing about 18 g on average, each group consisting of 10 animals, were […] injected with the physiological salt solution containing the test compound. The amount of the test compound administered was varied in 5-8 groups. Three days after the administration, dead animals were counted in each group. The amount of the test compound killing half the number of the animals (LD50) was calculated from the results.
The acute toxicity of the 3-aminoindazole derivatives and their hydrochloric acid salts obtained by Examples 1-49 of this invention was measured by giving male ddY-strain mice an intravenous injection.

The mark [3] stands for this setting: po, 3 h, 100 mg/kg, measured three hours after the injection, read-out: Inhibition (carrageenin edema), Table 17.
Where [4] appears, read: 100 mg/kg, oral, 3 h after carrageenin, read-out: Inhibition (carrageenin edema), Table 1.

Where two headings read alike, the source gives them in different places.

Regarding `CC(CCNc1nn(CCCN2CCCCC2)c2ccccc12)N1CCCCC1` (stereo not drawn) [Compound (41), 1-(3-piperidinopropyl)-3-(3-piperidinobutylamino)indazole], in series [1] (setting [3]), the inhibition in vivo at 100 mg/kg was determined as 28%. Also, the LD50 at 72 h in series [2] stood at 99 mg/kg.
With `Nc1nn(CCc2ccccc2)c2ccccc12` [Compound C-3, 1-(2-phenylethyl)-3-aminoindazole, reference compound], the inhibition in vivo at 100 mg/kg in series [1] (setting [4]) is 7%.
For the compound `CCN(CC)CCCn1nc(NCCCN2CCCCC2)c2ccccc21` [Compound (34), 1-(3-diethylaminopropyl)-3-(3-piperidinopropylamino)indazole], the inhibition in vivo at 100 mg/kg in series [1] (setting [3]) and in series [1] (setting [4]) was 28% each time. Also, in series [2], the LD50 at 72 h turned out to be 172 mg/kg.
Consider `Nc1nn(CCN2CCCCC2)c2ccccc12` [Compound (17), 1-(2-piperidinoethyl)-3-aminoindazole], for which the inhibition in vivo at 100 mg/kg in series [1] (setting [3]) came out at 47%. Also, the LD50 at 72 h in series [2] was 143 mg/kg.
As to `CCCCN(CCCC)CCCNc1n[nH]c2ccccc12` [Compound (11), 3-(3-di-n-butylaminopropylamino)indazole], in series [1] (setting [3]), the inhibition in vivo at 100 mg/kg worked out at 65%. Moreover, the LD50 at 72 h in series [2] came out at 115 mg/kg.
Take `c1ccc2c(NCCN3CCCCC3)n[nH]c2c1` [Compound (1), 3-(2-piperidinoethylamino)indazole]: in series [1] (setting [3]), the inhibition in vivo at 100 mg/kg stood at 48%. Besides, the median lethal dose (LD50) at 72 h in series [2] turned out to be 146 mg/kg.
Regarding `c1ccc2c(c1)c(NCCCN1CCCCC1)nn2CCCN1CCCCC1` [Compound (39), 1-(3-piperidinopropyl)-3-(3-piperidinopropylamino)indazole], the inhibition in vivo at 100 mg/kg in series [1] (setting [3]) and in series [1] (setting [4]) was 28% in each case. Also, in series [2], the LD50 at 72 h turned out to be 102 mg/kg.
As to `c1ccc2c(NCCCCCCN3CCCCC3)n[nH]c2c1` [Compound (3), 3-(6-piperidinohexylamino)indazole], the inhibition in vivo at 100 mg/kg in series [1] (setting [3]) came to 30%. Also, in series [2], the LD50 at 72 h came to 143 mg/kg.
As to `CC1CCCC(C)N1CCCNc1n[nH]c2ccccc12` (stereo not drawn) [Compound (7), 3-{3-(2,6-dimethylpiperidino)propylamino}indazole], the inhibition in vivo at 100 mg/kg in series [1] (setting [3]) stood at 35%. Further, in series [2], the LD50 at 72 h is 143 mg/kg.
For `CCN(CC)CCCNc1nn(CCCN(CC)CC)c2ccccc12` [Compound (33), 1-(3-diethylaminopropyl)-3-(3-diethylaminopropylamino)indazole], the inhibition in vivo at 100 mg/kg in series [1] (setting [3]) and in series [1] (setting [4]) was 29% in each case. Moreover, the LD50 at 72 h in series [2] came out at 238 mg/kg.
As to `c1ccc2c(c1)c(NCCCCCCN1CCCCC1)nn2CCCN1CCCCC1` [Compound (40)], the inhibition in vivo at 100 mg/kg in series [1] (setting [3]) was 21%. Also, the LD50 at 72 h in series [2] came to 122 mg/kg.
As to `Nc1nn(CCCN2CCC(Cl)CC2)c2ccccc12` [Compound (25), 1-{3-(4-chloropiperidino)propyl}-3-aminoindazole], the inhibition in vivo at 100 mg/kg in series [1] (setting [3]) came out at 59%. For the same compound, the LD50 at 72 h in series [2] was found to be 356 mg/kg.
As for `CCN(CC)CCCNc1nn(CCC(C)N(C)C)c2ccccc12` (stereo not drawn) [Compound (46), 1-(3-dimethylaminobutyl)-3-(3-diethylaminopropylamino)indazole], the inhibition in vivo at 100 mg/kg in series [1] (setting [3]) was found to be 29%. For the same compound, the LD50 at 72 h in series [2] was 272 mg/kg.
In the case of `CCCNc1n[nH]c2ccccc12` [Compound C-1, 3-(propylamino)indazole, reference compound], the inhibition in vivo at 100 mg/kg in series [1] (setting [4]) was 7%.
Regarding `CC(CCn1nc(N)c2ccccc21)N1CCCCC1` (stereo not drawn) [Compound (29), 1-(3-piperidinobutyl)-3-aminoindazole], the inhibition in vivo at 100 mg/kg in series [1] (setting [3]) was found to be 46%. Further, in series [2], the LD50 at 72 h was 104 mg/kg.
Consider `Nc1nn(CCCN2CCCCCC2)c2ccccc12` [Compound (21), 1-(3-homopiperidinopropyl)-3-aminoindazole], for which, in series [1] (setting [3]), the inhibition in vivo at 100 mg/kg came out at 58%. Moreover, in series [2], the LD50 at 72 h turned out to be 184 mg/kg.
For the compound `Nc1nn(CCCN2CCC(O)CC2)c2ccccc12` [Compound (24), 1-{3-(4-hydroxypiperidino)propyl}-3-aminoindazole], the inhibition in vivo at 100 mg/kg in series [1] (setting [3]) came out at 46%. In addition, in series [2], the LD50 at 72 h came out at 367 mg/kg.
For `Nc1nn(CCCN2CCCC2)c2ccccc12` [Compound (20), 1-(3-pyrrolidinopropyl)-3-aminoindazole], in series [1] (setting [3]), the inhibition in vivo at 100 mg/kg was 29%. In addition, in series [2], the LD50 at 72 h was found to be 98 mg/kg.
In the case of `CC(CCNc1n[nH]c2ccccc12)N1CCCCC1` (stereo not drawn) [Compound (14), 3-(3-piperidinobutylamino)indazole], the inhibition in vivo at 100 mg/kg in series [1] (setting [3]) was found to be 55%. In addition, the LD50 at 72 h in series [2] came to 95 mg/kg.
`CC(CCNc1nn(CCC(C)N2CCCCC2)c2ccccc12)N(C)C` (stereo not drawn) [Compound (45)]: the inhibition in vivo at 100 mg/kg in series [1] (setting [3]) was found to be 21%. For the same compound, in series [2], the LD50 at 72 h was 124 mg/kg.
With `ClC1CCN(CCCNc2n[nH]c3ccccc23)CC1` [Compound (9), 3-{3-(4-chloropiperidino)propylamino}indazole], the inhibition in vivo at 100 mg/kg in series [1] (setting [3]) was 68%. For the same compound, the LD50 at 72 h in series [2] was 347 mg/kg.
Turning to `CCN(CC)CCCn1nc(N)c2ccccc21` [Compound (26), 1-(3-diethylaminopropyl)-3-aminoindazole], the inhibition in vivo at 100 mg/kg in series [1] (setting [3]) came out at 61%. In addition, in series [2], the LD50 at 72 h is 243 mg/kg.
For `CCN(CC)CCCn1nc(NCCCCCCN2CCCCC2)c2ccccc21` [Compound (35)], in that order: 21% and 193 mg/kg.
Consider `CCCCN(CCCC)CCCNc1nn(CCCN(CC)CC)c2ccccc12` [Compound (36), 1-(3-diethylaminopropyl)-3-(3-di-n-butylaminopropylamino)indazole], for which the inhibition in vivo at 100 mg/kg in series [1] (setting [3]) was found to be 31%. Further, in series [2], the LD50 at 72 h turned out to be 179 mg/kg.
For `CCCn1nc(N)c2ccccc21` [Compound C-2, 1-propyl-3-aminoindazole, reference compound], the inhibition in vivo at 100 mg/kg in series [1] (setting [4]) came to 7%.
For `CC(C)CC(CCn1nc(N)c2ccccc21)N(C)C` (stereo not drawn) [Compound (31), 1-(3-dimethylamino-5-methylhexyl)-3-aminoindazole], the inhibition in vivo at 100 mg/kg in series [1] (setting [3]) is 28%. Besides, in series [2], the LD50 at 72 h was 154 mg/kg.
Take `CCN(CC)C(CCNc1nn(CCC(C)N(C)C)c2ccccc12)CC(C)C` (stereo not drawn) [Compound (49), 1-(3-dimethylaminobutyl)-3-(3-diethylamino-5-methylhexylamino)indazole]: the inhibition in vivo at 100 mg/kg in series [1] (setting [3]) was found to be 21%. Moreover, in series [2], the LD50 at 72 h was 247 mg/kg.
As for `CC(CCn1nc(NCCCN2CCCCC2)c2ccccc21)N1CCCCC1` (stereo not drawn) [Compound (43), 1-(3-piperidinobutyl)-3-(3-piperidinopropylamino)indazole], in series [1] (setting [3]), the inhibition in vivo at 100 mg/kg worked out at 28%. The LD50 at 72 h in series [2] was determined as 98 mg/kg.
In the case of `CN(C)CCNc1nn(-c2ccccc2)c2ccccc12` [Compound C-5, 1-phenyl-3-(2-dimethylaminoethylamino)indazole, reference compound], the “Inhibition (carrageenin edema), Table 2” value in series [1] (25 mg/kg, oral) came out at 15%; in series [1] (50 mg/kg, oral), 18%; in series [1] (100 mg/kg, oral), 55%.
Regarding `CC(C)CC(CCNc1n[nH]c2ccccc12)N1CCCCC1` (stereo not drawn) [Compound (15), 3-(5-methyl-3-piperidinohexylamino)indazole], in series [1] (setting [3]), the inhibition in vivo at 100 mg/kg is 42%. Moreover, the LD50 at 72 h in series [2] amounted to 144 mg/kg.
As to `CCN(CC)C(C)CCNc1n[nH]c2ccccc12` (stereo not drawn) [Compound (16)], the inhibition in vivo at 100 mg/kg in series [1] (setting [3]) was found to be 63%. In addition, the LD50 at 72 h in series [2] worked out at 184 mg/kg.
For `CC(CCn1nc(NCCCN2CCCCC2)c2ccccc21)N(C)C` (stereo not drawn) [Compound (47), 1-(3-dimethylaminobutyl)-3-(3-piperidinopropylamino)indazole], the inhibition in vivo at 100 mg/kg in series [1] (setting [3]) amounted to 28%. Further, the LD50 at 72 h in series [2] was 212 mg/kg.
In the case of `CC(C)CC(CCNc1nn(CCC(C)N2CCCCC2)c2ccccc12)N1CCCCC1` (stereo not drawn) [Compound (44), 1-(3-piperidinobutyl)-3-(5-methyl-3-piperidinohexylamino)indazole], the inhibition in vivo at 100 mg/kg in series [1] (setting [3]) was 21%. Besides, the LD50 at 72 h in series [2] was 123 mg/kg.
For `CN(C)CCNc1n[nH]c2ccccc12` [Compound (12), 3-(2-dimethylaminoethylamino)indazole] the same measures were 52% and 334 mg/kg.
For `CCN(CC)CCCn1nc(NCCC(C)N2CCCCC2)c2ccccc21` (stereo not drawn) [Compound (37), 1-(3-diethylaminopropyl)-3-(3-piperidinobutylamino)indazole], the inhibition in vivo at 100 mg/kg in series [1] (setting [3]) came out at 27%. The LD50 at 72 h in series [2] was found to be 169 mg/kg.
With `c1ccc2c(NCCCN3CCCCCC3)n[nH]c2c1` [Compound (5), 3-(3-homopiperidinopropylamino)indazole], in series [1] (setting [3]), the inhibition in vivo at 100 mg/kg was 59%. The LD50 at 72 h in series [2] worked out at 175 mg/kg.
For `CCCCN(CCCC)CCCn1nc(N)c2ccccc21` [Compound (27), 1-(3-di-n-butylaminopropyl)-3-aminoindazole], in that order: 57% and 124 mg/kg.

One may read the LD50 as the dose at which mortality reaches 50%.
